Patent publication US20240110202A1, “Advanced Cell-Permeable Peptide Carriers” (MUSC FOUNDATION FOR RESEARCH DEVELOPMENT, priority 2020, published 2024)
Entries after “also recorded” stand apart in the source; their conditions may differ.

Columns and labels:
[1] = Physicochemical measurements (Zetasizer) of peptide-siCIP2A complexes; conditions: complex with siCIP2A at 50:1 Peptide:siRNA molar (12.5 N/P) ratio in water; for Particle Size: mean hydrodynamic size, dynamic light scattering, ± SD; for Particle Size / Zeta Potential: three experiments; for Zeta Potential: mean ± SD
siCIP2A [2] = experiment: siRNA binding assay (gel-shift); conditions: 10:1 Peptide:siRNA molar ratio
Excerpt: Afterwards, the samples were electrophoresed on a 4% agarose gel and stained with ethidium bromide. Free siCIP2A was used as a normalizing control. An Ultra-Low Range DNA Ladder (Thermo Fisher Scientific, Waltham, MA) was used as a MW marker. Resulting siCIP2A bands were imaged and quantified using a G:Box Chemi XX6 and GeneSys image capture software (Syngene, Frederick, MD), respectively.

CIP2A mRNA [3] = experiment: CIP2A silencing in cells, real-time PCR; type: cell-based, human; conditions: CAL 27 cells, 50:1, 48 hours
Method: CAL 27 cells, grown to a confluency of 60% on 24-well plates, were rinsed three times with Opti-MEM. […] Afterwards, the complexes were added to the cells at a siRNA concentration of 125 nM and incubated for 4 hours at 37° C. with 5% CO2, prior to adjusting the siRNA and FBS concentrations to 100 nM and 10%, respectively, with the addition of 50% FBS/Opti-MEM media. 48 hours post-treatment, the total RNA or protein was harvested for subsequent real-time PCR and Western blot analyses.
Total RNA was harvested using the RNeasy Mini Kit (Qiagen, Germantown, MD). RNA was then reverse transcribed using the High-Capacity cDNA Reverse Transcription Kit (Thermo Fisher Scientific) in a Bio-Rad (Hercules, CA) T100 Thermal Cycler. Next, quantitative real-time PCR was performed in an Applied Biosystems™ StepOnePlus™ Real-Time PCR machine (Thermo Fisher Scientific) using the TaqMan™ Fast Advanced Master Mix (Thermo Fisher Scientific) and predesigned TaqMan™ Gene Expression Assays (Thermo Fisher Scientific) for CIP2A (Hs00405413_m1) and 18S (4319413E), according to the manufacturer's instructions.

Serum protection assay = type: in vitro ADME; conditions: siCIP2A, 50:1, 50% human serum, 1 hour at 37° C.
Method: Afterwards, complexes were either treated or untreated with 50% human serum (final concentration; VWR, Radnor, PA) for 1 hour at 37° C., followed by denaturation with 4% SDS. Next, the samples were electrophoresed on a 4% agarose gel and resulting siCIP2A bands were imaged and quantified, as described above.

CAL 27 cells = experiment: Quantitative siRNA cell uptake assay; type: cell-based, human; conditions: DY547-siCIP2A, 2 hours post-treatment; for siRNA delivery into cells (internalization) compared to 599: 50:1 Peptide:siRNA molar (12.5 N/P) ratio
Method: CAL 27 cells, grown to a confluency of 60% on a 24-well plate, were rinsed three times with Opti-MEM I Reduced Serum Media (Opti-MEM; Thermo Fisher Scientific). […] After complexation, the total volume was brought to 600 μL with Opti-MEM, after which the cells were incubated with 500 μL of peptide-siCIP2A complexes for 2 hours at 37° C. with 5% CO2. As an additional control, the cells were also transfected with 50 pmol of DY547-siCIP2A using Lipofectamine® 3000 (Thermo Fisher Scientific), according to the manufacturer's instructions. After treatment, the cells were rinsed three times with PBS, before being trypsinized for 10 minutes at 37° C., followed by centrifugation for 5 minutes at 1,000×g at 4° C. The cells were then washed with ice cold phosphate-buffered saline (PBS) and centrifuged again for 5 minutes at 1,000×g at 4° C. Next, the cells were lysed in 250 μl ice cold 0.1 M NaOH. The cell lysates were centrifuged at 4° C. for 5 minutes at 10,000×g to remove cell debris. Afterwards, 100 μL of each sample was transferred to a black 96-well plate to measure fluorescence at 530/590 nm using a BioTek (Winooski, VT) Synergy HT plate reader. Fluorescence measurements were converted to the amount of internalized siRNAs using a standard curve that was generated per experiment using known concentrations of DY547-siCIP2A ranging from 0-100 fmol/μl. Subsequently, the amount of internalized siRNA was normalized to the amount of protein, which was quantitated using the Pierce BCA Protein Assay Kit (Thermo Fisher Scientific).

siCIP2A [4] = experiment: siRNA release assay (heparin competition); conditions: 50:1 complexes; for siRNA release compared to 599: 0-10 μg heparin, 30 minutes at RT
Method: Afterwards complexes were incubated with either 0, 0.1, 0.5, 1.0, 2.0, 5.0 or 10 μg heparin (Millipore Sigma, St. Louis, MO) for 30 minutes at RT. The samples were then electrophoresed on a 4% agarose gel and resulting siCIP2A bands were imaged and quantified, as described above.

RNase A = experiment: RNase protection assay; type: biochemical; conditions: siCIP2A, 50:1, 1 hour at 37° C.
RNase A, sequence (P61823 27-150): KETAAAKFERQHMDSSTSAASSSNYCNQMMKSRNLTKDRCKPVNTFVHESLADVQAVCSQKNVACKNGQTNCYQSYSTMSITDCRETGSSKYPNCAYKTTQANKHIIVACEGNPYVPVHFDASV
Method: Afterwards, complexes were either treated or untreated with 0.18 μg of RNase A (Thermo Fisher Scientific) for 1 hour at 37° C., followed by denaturation with 4% SDS. Next, the samples were electrophoresed on a 4% agarose gel and resulting siCIP2A bands were imaged and quantified, as described above.

CIP2A mRNA [5] = experiment: Dual peptide siRNA delivery system with GE11R9, CIP2A knockdown; type: cell-based, human; conditions: CAL 27 cells

| Substance | PDI (Polydispersity index) [1] | Particle Size [1] | Zeta Potential [1] | binding improvement relative to 599 (siCIP2A [2]) | gene silencing in comparison to 599 / among the peptide variants (CIP2A mRNA [3]) | ability to protect siRNAs in the presence of serum, compared to 599 (Serum protection assay) | siRNA delivery into cells compared to 599 (CAL 27 cells; 30:1 Peptide:siRNA molar (7.5 N/P) ratio) | siRNA delivery into cells (internalization) compared to 599 (CAL 27 cells) | siRNA release compared to 599 (siCIP2A [4]) | ability to protect siRNAs in the presence of RNase A, compared to 599 (RNase A) | complexed siRNAs (maximally) released (siCIP2A [4]; increasing heparin, maximal at 4-fold excess and higher (≥2 μg; ≥120 pmol) of heparin) | CIP2A knockdown with GE11R9 as compared to scrambled control peptide GE11SCR9 (CIP2A mRNA [5]) |
| --- | --- | --- | --- | --- | --- | --- | --- | --- | --- | --- | --- | --- |
| GlfeaieGfienGweGmidGwyGGGGRRRRRRRRRK [INF7D] | 0.296 | 190.4 ± 94.6 nm | 28.2 ± 10.2 mV | ~20% | weakest gene silencing effect among the peptide variants | greatest instability in serum | dramatic and significant reduction in siRNA delivery into cells | significantly decreased levels of siRNA cell internalization; also recorded: adversely affect the intracellular delivery of siRNAs; also recorded: on average lower siRNA uptake abilities in comparison to 599; also recorded: poorest siRNA cell uptake | No statistical differences in siRNA release |  |  |  |
| GlfeaieGfienGweGmidGwyGGGGrrrrrrrrrk [All-D] | 0.366 | 185.9 ± 72.0 nm | 28.3 ± 7.7 mV |  |  | did not differ from 599 |  | on average lower siRNA uptake abilities in comparison to 599 | poor siRNA release | did not differ from 599 | ~70% |  |
| YHWYGYTPQNVIGGGGRRRRRRRRRK [GE11R9, EGFR-targeting derivative of GE11 peptide with a stretch of densely packed cationic amino acids] |  |  |  |  |  |  |  |  |  |  |  | shown to be specific |
